Laboratory results: patent US20210322443A1 (MAPREG, priority 2015, published 2021)

Key:
[1] = target: Muscarinic (Cholinergic) M2 (Homo sapiens, UniProt P08172); assay: CNS receptor binding assay; settings: [3H] AF-DX 384, Human recombinant (CHO cells), read-out: % Inhibition of control specific binding
[2] = target: Muscarinic (Cholinergic) M3 (Homo sapiens, UniProt P20309); assay: CNS receptor binding assay; settings: [3H] 4-DAMP, Human recombinant (CHO cells), read-out: % Inhibition of control specific binding
[3] = target: Muscarinic (Cholinergic) M5 (Homo sapiens, UniProt P08912); assay: CNS receptor binding assay; settings: [3H] 4-DAMP, Human recombinant (CHO cells), read-out: % Inhibition of control specific binding
[4] = target: Noradrenergic Transporter (Homo sapiens, UniProt P23975); assay: CNS receptor binding assay; settings: [3H] nisoxetine, Human recombinant (CHO cells), read-out: % Inhibition of control specific binding
Serotoninergic 5-HT2A = Serotoninergic 5-HT2A (Homo sapiens, UniProt P28223); assay: CNS receptor binding assay; settings: [3H] ketanserin, Human recombinant (HEK-293 cells), read-out: % Inhibition of control specific binding
GABA (non-selective) = assay: CNS receptor binding assay; settings: 10 μM; [3H] GABA; rat cerebral cortex
Oppioid κ = Oppioid κ (Rattus norvegicus, UniProt P34975); assay: CNS receptor binding assay; settings: [3H] U 69593, rat recombinant (CHO cells), read-out: % Inhibition of control specific binding
[5] = test system: 80 different CNS neurotransmitters receptors; assay: Screen for in vitro affinity to 80 CNS receptors; format: binding; settings: significant = inhibition higher than 50%
[6] = Blood parameters before and after MAP4343 treatment; format: in vivo, Wistar rats; settings: dependent and non-dependent rats, pre/post treatment, 10 mg/kg sub-cutaneously, FIGS. 4 to 17
Method: Blood samples were obtained before and after completion of the treatment with MAP4343 using retro-orbital sampling. Blood, serum and plasma were collected and analyzed using standard procedures to evaluate blood count panel, blood urea nitrogen, cholesterol, creatinine, T3, T4 and protein electrophoresis.
Data were analyzed by appropriate mixed factorial ANOVA, followed Newman Keuls post hoc tests

Histaminergic H2 = Histaminergic H2 (Homo sapiens, UniProt P25021); assay: CNS receptor binding assay; settings: read-out: % Inhibition of control specific binding
Noradrenergic α1 = assay: CNS receptor binding assay; settings: 10 μM; [3H] prazosin; rat cerebral cortex
Noradrenergic α2 = assay: CNS receptor binding assay; settings: 10 μM; [3H] RX 821002; rat cerebral cortex
Noradrenergic β2 = Noradrenergic β2 (Homo sapiens, UniProt P07550); assay: CNS receptor binding assay; settings: read-out: % Inhibition of control specific binding
Serotoninergic 5-HT2B = Serotoninergic 5-HT2B (Homo sapiens, UniProt P41595); assay: CNS receptor binding assay; settings: read-out: % Inhibition of control specific binding
Serotoninergic 5-HT3 = Serotoninergic 5-HT3 (Homo sapiens, UniProt P46098); assay: CNS receptor binding assay; settings: read-out: % Inhibition of control specific binding
Serotoninergic 5-HT6 = Serotoninergic 5-HT6 (Homo sapiens, UniProt P50406); assay: CNS receptor binding assay; settings: read-out: % Inhibition of control specific binding
Serotoninergic 5-HT7 = Serotoninergic 5-HT7 (Homo sapiens, UniProt P34969); assay: CNS receptor binding assay; settings: read-out: % Inhibition of control specific binding
Dopaminergic D2S = Dopaminergic D2S (Homo sapiens, UniProt P14416); assay: CNS receptor binding assay; settings: read-out: % Inhibition of control specific binding
Dopaminergic D2S, sequence (P14416 1-414 isoform P14416-2): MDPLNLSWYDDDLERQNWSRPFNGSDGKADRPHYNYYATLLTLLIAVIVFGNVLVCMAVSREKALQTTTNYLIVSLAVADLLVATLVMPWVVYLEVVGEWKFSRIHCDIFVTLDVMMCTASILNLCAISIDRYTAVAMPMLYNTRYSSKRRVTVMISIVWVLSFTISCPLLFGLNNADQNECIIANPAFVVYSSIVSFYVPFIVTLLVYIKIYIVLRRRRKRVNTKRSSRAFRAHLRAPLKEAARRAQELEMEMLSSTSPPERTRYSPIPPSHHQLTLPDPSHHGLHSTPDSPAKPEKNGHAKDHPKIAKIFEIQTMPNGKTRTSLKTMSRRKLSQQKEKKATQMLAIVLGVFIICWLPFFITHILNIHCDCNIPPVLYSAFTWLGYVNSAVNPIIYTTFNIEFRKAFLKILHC

Oppioid κ, sequence (P34975 whole entry): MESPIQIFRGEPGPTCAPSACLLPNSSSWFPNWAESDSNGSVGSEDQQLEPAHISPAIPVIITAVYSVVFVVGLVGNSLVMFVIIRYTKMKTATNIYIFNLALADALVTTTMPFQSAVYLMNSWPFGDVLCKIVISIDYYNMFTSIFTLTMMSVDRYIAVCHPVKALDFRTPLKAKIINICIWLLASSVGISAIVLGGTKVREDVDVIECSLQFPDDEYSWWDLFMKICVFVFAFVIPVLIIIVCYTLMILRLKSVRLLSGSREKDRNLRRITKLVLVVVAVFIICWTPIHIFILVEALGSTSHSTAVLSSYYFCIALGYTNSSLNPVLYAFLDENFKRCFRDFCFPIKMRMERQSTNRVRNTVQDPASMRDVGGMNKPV
Serotoninergic 5-HT7, sequence (P34969 whole entry): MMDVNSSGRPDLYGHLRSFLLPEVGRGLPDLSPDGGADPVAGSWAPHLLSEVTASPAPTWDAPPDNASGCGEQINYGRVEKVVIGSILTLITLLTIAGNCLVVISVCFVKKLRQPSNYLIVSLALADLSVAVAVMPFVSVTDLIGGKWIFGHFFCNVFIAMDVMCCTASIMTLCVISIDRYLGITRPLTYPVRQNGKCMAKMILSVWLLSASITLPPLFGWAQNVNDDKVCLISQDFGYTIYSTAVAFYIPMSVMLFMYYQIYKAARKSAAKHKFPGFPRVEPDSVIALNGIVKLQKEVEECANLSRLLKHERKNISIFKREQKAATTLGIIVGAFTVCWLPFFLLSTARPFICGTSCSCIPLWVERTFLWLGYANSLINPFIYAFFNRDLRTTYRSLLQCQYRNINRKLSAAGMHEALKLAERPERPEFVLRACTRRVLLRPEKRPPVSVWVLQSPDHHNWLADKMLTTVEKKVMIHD
Muscarinic (Cholinergic) M5, sequence (P08912 whole entry): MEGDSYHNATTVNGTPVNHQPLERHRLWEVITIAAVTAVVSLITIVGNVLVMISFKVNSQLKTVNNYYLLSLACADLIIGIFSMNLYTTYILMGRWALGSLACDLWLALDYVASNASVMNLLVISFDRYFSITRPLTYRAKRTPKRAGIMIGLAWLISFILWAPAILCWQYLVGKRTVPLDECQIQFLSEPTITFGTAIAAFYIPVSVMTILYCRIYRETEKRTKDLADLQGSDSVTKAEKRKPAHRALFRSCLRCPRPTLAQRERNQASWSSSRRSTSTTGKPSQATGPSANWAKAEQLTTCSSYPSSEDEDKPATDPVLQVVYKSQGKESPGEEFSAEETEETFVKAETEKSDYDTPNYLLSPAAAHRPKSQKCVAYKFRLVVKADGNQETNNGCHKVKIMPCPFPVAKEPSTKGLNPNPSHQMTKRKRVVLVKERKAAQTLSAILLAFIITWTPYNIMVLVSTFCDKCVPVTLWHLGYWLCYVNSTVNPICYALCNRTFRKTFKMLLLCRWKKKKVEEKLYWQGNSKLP
Serotoninergic 5-HT6, sequence (P50406 whole entry): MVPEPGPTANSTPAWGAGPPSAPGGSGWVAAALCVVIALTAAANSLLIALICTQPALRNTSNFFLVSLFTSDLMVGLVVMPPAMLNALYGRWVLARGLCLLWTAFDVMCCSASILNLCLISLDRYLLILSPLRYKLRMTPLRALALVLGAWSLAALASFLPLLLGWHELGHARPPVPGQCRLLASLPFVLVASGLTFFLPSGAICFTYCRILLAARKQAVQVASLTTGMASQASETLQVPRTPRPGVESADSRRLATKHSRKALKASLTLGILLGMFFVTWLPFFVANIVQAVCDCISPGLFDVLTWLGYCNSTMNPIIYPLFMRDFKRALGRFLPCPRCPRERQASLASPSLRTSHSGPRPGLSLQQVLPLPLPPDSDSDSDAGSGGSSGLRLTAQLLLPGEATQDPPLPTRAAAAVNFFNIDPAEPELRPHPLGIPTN
Histaminergic H2, sequence (P25021 whole entry): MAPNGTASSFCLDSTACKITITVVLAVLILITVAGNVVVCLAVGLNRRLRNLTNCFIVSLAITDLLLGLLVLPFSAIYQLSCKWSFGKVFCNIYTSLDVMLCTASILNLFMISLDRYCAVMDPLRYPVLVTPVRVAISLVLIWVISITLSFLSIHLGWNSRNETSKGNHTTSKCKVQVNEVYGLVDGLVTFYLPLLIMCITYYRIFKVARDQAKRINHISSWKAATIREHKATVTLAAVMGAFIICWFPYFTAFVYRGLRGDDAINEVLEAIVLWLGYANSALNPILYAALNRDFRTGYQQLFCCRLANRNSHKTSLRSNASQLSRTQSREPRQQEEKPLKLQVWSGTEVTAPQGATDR
Serotoninergic 5-HT2A, sequence (P28223 whole entry): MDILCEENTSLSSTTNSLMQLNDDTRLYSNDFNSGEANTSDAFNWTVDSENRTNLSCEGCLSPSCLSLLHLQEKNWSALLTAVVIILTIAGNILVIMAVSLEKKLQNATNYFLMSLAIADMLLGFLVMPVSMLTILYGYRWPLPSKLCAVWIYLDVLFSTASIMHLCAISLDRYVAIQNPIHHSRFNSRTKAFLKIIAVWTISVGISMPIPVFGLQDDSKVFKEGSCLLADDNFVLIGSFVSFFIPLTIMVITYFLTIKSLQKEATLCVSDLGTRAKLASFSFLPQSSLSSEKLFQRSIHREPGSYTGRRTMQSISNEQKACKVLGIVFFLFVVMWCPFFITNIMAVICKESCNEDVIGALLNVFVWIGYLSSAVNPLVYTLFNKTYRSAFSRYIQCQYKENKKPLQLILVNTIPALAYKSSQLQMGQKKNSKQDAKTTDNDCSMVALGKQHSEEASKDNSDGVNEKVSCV
Noradrenergic Transporter, sequence (P23975 whole entry): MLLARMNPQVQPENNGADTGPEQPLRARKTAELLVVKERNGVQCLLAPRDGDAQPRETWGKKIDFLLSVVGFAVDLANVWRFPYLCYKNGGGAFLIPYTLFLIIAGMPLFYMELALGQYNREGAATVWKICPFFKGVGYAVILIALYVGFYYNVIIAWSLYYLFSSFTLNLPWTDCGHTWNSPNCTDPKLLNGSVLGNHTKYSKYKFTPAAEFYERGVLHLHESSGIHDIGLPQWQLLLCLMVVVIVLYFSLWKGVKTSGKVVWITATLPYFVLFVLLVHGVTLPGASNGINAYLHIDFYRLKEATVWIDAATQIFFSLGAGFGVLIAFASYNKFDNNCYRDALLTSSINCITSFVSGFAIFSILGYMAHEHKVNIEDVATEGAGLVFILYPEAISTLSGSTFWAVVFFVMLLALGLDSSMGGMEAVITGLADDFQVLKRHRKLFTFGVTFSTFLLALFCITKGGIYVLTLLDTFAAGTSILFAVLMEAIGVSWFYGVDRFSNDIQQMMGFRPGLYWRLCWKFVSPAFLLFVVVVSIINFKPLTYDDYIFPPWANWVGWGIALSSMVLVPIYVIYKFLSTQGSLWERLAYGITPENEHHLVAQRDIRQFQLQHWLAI
Noradrenergic β2, sequence (P07550 whole entry): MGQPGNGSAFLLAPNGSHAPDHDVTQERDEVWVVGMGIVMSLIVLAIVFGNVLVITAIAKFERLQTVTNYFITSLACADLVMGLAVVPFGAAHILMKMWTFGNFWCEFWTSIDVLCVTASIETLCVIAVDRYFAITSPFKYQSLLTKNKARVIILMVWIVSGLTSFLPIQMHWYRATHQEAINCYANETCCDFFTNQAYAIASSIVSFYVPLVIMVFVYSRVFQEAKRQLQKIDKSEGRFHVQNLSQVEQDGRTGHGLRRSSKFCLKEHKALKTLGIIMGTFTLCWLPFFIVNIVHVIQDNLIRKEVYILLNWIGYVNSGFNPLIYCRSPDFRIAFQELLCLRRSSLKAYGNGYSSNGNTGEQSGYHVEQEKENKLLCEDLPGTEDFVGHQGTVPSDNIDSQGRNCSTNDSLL
Muscarinic (Cholinergic) M2, sequence (P08172 whole entry): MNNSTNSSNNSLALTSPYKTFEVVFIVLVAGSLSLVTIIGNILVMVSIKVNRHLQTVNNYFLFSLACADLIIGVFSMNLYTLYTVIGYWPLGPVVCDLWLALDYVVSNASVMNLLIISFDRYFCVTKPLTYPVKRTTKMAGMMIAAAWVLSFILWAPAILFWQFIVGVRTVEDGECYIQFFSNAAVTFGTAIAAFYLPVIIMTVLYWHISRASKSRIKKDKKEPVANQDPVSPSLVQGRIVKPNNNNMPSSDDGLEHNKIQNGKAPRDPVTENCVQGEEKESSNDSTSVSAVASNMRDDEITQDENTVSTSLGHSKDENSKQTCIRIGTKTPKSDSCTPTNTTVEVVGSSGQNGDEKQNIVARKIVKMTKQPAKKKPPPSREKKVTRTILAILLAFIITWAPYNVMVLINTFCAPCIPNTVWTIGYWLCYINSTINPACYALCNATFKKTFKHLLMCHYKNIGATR

In the case of `CO[C@H]1CC[C@@]2(C)C(=CC[C@H]3[C@@H]4CC[C@H](C(C)=O)[C@@]4(C)CC[C@@H]32)C1` [MAP4343, 3β-methoxy-pregna-5-ene-20-one], the inhibition at 10 µM [1] is reported as 20%, the inhibition at 10 µM [2] is reported as 3% and the inhibition at 10 µM [3] is reported as 12%. For the same compound, the inhibition at 10 µM [4] was 3%, the inhibition at 10 µM (Serotoninergic 5-HT2A) was 1% and the “% Inhibition of control specific binding” value (GABA (non-selective)) was 2%. For the same compound, the inhibition at 10 µM (Oppioid κ) was 19%, the “in vitro affinity for any tested receptor” value [5] was “no significant affinity for any tested receptor” and the “effect on blood parameters (blood count panel, blood urea nitrogen, cholesterol, creatinine, T3, T4, protein electrophoresis)” value [6] was “no significant effects of dependence or treatment on any of the blood parameters investigated”. The inhibition at 10 µM (Histaminergic H2) was -21%, the “% Inhibition of control specific binding” value (Noradrenergic α1) was 4% and the “% Inhibition of control specific binding” value (Noradrenergic α2) was 7%. The inhibition at 10 µM (Noradrenergic β2) was -4%, the inhibition at 10 µM (Serotoninergic 5-HT2B) was -4% and the inhibition at 10 µM (Serotoninergic 5-HT3) was 10%. For the same compound, the inhibition at 10 µM (Serotoninergic 5-HT6) was 12%, the inhibition at 10 µM (Serotoninergic 5-HT7) was -11% and the inhibition at 10 µM (Dopaminergic D2S) was 6%.
